In ChEMBL document CHEMBL2069172, “Transition state analogue inhibitors of human methylthioadenosine phosphorylase and bacterial methylthioadenosine/S-adenosylhomocysteine nucleosidase incorporating acyclic ribooxacarbenium ion mimics” (Bioorg Med Chem, 2012):

Legend:
[1] = Inhibition of Neisseria meningitidis MTAN assessed as reduction in methylthioadenosine phosphorolysis/hydrolysi
[2] = Inhibition of Escherichia coli MTAN assessed as reduction in methylthioadenosine phosphorolysis/hydrolysis
[3] = molecular target: T1, S-methyl-5'-thioadenosine phosphorylase (Homo sapiens, UniProt Q13126); test: Inhibition of human MTAP assessed as reduction in methylthioadenosine phosphorolysis/hydrolysis
T1 sequence (Q13126 whole entry): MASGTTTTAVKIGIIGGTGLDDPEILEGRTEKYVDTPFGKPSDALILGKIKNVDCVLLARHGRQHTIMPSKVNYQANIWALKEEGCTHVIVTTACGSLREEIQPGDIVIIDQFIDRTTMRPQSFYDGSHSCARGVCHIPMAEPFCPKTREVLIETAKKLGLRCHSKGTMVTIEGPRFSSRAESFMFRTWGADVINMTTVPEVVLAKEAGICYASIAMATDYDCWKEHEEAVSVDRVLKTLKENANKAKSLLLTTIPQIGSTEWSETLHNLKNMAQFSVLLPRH

Escherichia coli = test: Ratio of Km to Ki for Escherichia coli MTAN assessed as reduction in methylthioadenosine phosphorolysis/hydrolysis

Q: For `CSC[C@H]1CN(Cc2c[nH]c3c(N)ncnc23)C[C@@H]1O`, which Ki [1] is on record?
A: 0.14 nM

Q: Which Ki [1] does the source give for `CSC[C@H]1N[C@@H](c2c[nH]c3c(N)ncnc23)[C@H](O)[C@@H]1O` here?
A: 0.36 nM

Q: What about the Ki [2] of the same compound?
A: 0.08 nM

Q: What does the source list for `CSCC(CO)(CO)NCc1c[nH]c2c(N)ncnc12`?
A: Ki [1]: 4 nM; Ki [2]: 5.8 nM

Q: For `CSC[C@@H](O)CNCc1c[nH]c2c(N)ncnc12`, which Ki [1] is on record?
A: 36 nM

Q: And the Ki [2]?
A: 40 nM

Q: What about the Ki [3] of the same compound?
A: 602 nM

Q: Which results are given for `CSC[C@@H](CN(C)Cc1c[nH]c2c(N)ncnc12)[C@@H](O)CO` (racemic)?
A: Ki [1]: 61 nM; Ki [2]: 2300 nM; Ki [3]: 12 nM; Ratio (Escherichia coli): 19

Q: For `CSCC(CO)NCc1c[nH]c2c(N)ncnc12` (racemic), which Ki [1] is on record?
A: 0.8 nM

Q: And the Ki [3]?
A: 12 nM

Q: For `CSC[C@H](O)[C@@H](O)CN(C)Cc1c[nH]c2c(N)ncnc12` (racemic), which Ki [1] is on record?
A: 85 nM

Q: And the Ki [2]?
A: 202 nM

Q: What about the Ki [3] of the same compound?
A: 368 nM

Q: What does the source list for `CSC[C@@H](CNCc1c[nH]c2c(N)ncnc12)[C@@H](O)CO` (racemic)?
A: Ki [1]: 5 nM; Ki [2]: 9 nM; Ki [3]: 34 nM

Q: With `CSC[C@@H](O)[C@H](CO)NCc1c[nH]c2c(N)ncnc12` as the compound, how does the Ki [3] read?
A: 34 nM

Q: Which Ki [3] does the source give for `CSC[C@H](O)[C@@H](CO)NCc1c[nH]c2c(N)ncnc12` here?
A: 87 nM

Q: Which results are given for `CSC[C@H](CO)N[C@H](CO)c1c[nH]c2c(N)ncnc12`?
A: Ki [1]: 47 nM; Ki [2]: 1720 nM

Q: For `CSCC(CO)CNCc1c[nH]c2c(N)ncnc12` (racemic), which Ki [1] is on record?
A: 1.2 nM

Q: And the Ki [2]?
A: 0.36 nM

Q: What about the Ki [3] of the same compound?
A: 10 nM

Q: With `CSC[C@@H](O)[C@@H](CO)NCc1c[nH]c2c(N)ncnc12` as the compound, how does the Ki [3] read?
A: 5.2 nM

Q: Which Ki [3] does the source give for `CSC[C@H](CO)NCc1c[nH]c2c(N)ncnc12` here?
A: 34 nM

Q: What does the source list for `CSC[C@H](O)[C@@H](CO)CN(C)Cc1c[nH]c2c(N)ncnc12` (racemic)?
A: Ki [1]: 132 nM; Ki [2]: 401 nM; Ki [3]: 105 nM

Q: What does the source list for `CSC[C@@H](CO)NCc1c[nH]c2c(N)ncnc12`?
A: Ki [3]: 4.4 nM; Ratio (Escherichia coli): 1200
